Data set [1] deals with rat GluN1/GluN2C (Rattus norvegicus, UniProt Q00961). Nature of the data set: Two-electrode voltage clamp recordings in Xenopus laevis oocytes, potentiation of GluN1/GluN2C. Type of data set: cell-based. The following applies: for GluN2C Max %: maximal response, current without potentiator = 100%; for GluN2C potentiation (NE class): 30 μM. As for the experimental part:
(§1) Xenopus laevis oocytes were purchased unfertilized from Ecocyte (Austin, Tex.). The oocytes were injected with mRNA to express recombinant rat GluN1/GluN2A, GluN1/GluN2B, GluN1/GluN2C, and GluN1/GluN2D and two-electrode voltage clamp (TEVC) recordings were performed. Drs. S. Heinemann (Salk Institute), S. Nakanishi (Kyoto University), and P. Seeburg (University of Heidelberg) provided the cDNAs for rat GluN1-1a (GenBank accession numbers U11418 and U08261, referred to as GluN1 henceforth), GluN2A (D13211), GluN2B (U11419), GluN2C (M91563), and GluN2D (D13213). GluN2C and GluN2D were altered according to literature precedent. […] To prevent the current increase typically seen during experiments with oocytes expressing GluN1/GluN2A receptors, the oocytes were either injected with 20 nL of 100 mM K-BAPTA (potassium 1,2-bis(o-aminophenoxy)ethane-N,N,N,N-tetraacetic acid) or pretreated with 50 μM BAPTA-AM (1,2-bis(o-aminophenoxy)ethane-N,N,N,N-tetraacetic acid tetraacetoxymethyl ester) for 10 minutes.
On the technique in general: In two-electrode clamp one electrode senses voltage and the other passes current.

Data set [2] deals with rat GluN1/GluN2C (Rattus norvegicus, UniProt P35439+Q00961). The description is as above. Type of data set: cell-based. As for the experimental part: as §1
For data set [3] the following is noted: nephelometer, oocyte recording solution.
The target in data set [4] is rat GluN1/GluN2D (Rattus norvegicus, UniProt Q62645). Nature of the data set: Two-electrode voltage clamp recordings in Xenopus laevis oocytes, potentiation of GluN1/GluN2D. Type of data set: cell-based. The following applies: for GluN2D Max %: maximal response, current without potentiator = 100%; for GluN2D potentiation (NE class): 30 μM. As for the experimental part: as §1

The target of data set [5] is rat GluN1/GluN2D (Rattus norvegicus, UniProt P35439+Q62645). The data set is described as above. Type of data set: cell-based. As for the experimental part: as §1
A further data set concerns GluN2C/D. The following applies: Mullasseril et al. 2010; read-out: potency at GluN2C/D; cited from earlier work.
Data set [6] relates to GluN2A/B, AMPAR, or kainate receptors. The following applies: previously described; cited from earlier work.
For data set [7], the system named is schizophrenia-like symptoms. The following applies: mice; Suryavanshi et al. 2014; cited from earlier work.
For data set [8], the system named is fear and extinction learning. The following applies: mice; Ogden et al. 2014; cited from earlier work.

SMILES strings stand for the structures. Values after ≈ are worked out from the molar mass of the structure shown. Read-outs that look alike come from different tables or passages of the source.

Sequence of rat GluN1/GluN2C (Rattus norvegicus, UniProt P35439+Q00961) (Q00961 20-1237, other chains not shown): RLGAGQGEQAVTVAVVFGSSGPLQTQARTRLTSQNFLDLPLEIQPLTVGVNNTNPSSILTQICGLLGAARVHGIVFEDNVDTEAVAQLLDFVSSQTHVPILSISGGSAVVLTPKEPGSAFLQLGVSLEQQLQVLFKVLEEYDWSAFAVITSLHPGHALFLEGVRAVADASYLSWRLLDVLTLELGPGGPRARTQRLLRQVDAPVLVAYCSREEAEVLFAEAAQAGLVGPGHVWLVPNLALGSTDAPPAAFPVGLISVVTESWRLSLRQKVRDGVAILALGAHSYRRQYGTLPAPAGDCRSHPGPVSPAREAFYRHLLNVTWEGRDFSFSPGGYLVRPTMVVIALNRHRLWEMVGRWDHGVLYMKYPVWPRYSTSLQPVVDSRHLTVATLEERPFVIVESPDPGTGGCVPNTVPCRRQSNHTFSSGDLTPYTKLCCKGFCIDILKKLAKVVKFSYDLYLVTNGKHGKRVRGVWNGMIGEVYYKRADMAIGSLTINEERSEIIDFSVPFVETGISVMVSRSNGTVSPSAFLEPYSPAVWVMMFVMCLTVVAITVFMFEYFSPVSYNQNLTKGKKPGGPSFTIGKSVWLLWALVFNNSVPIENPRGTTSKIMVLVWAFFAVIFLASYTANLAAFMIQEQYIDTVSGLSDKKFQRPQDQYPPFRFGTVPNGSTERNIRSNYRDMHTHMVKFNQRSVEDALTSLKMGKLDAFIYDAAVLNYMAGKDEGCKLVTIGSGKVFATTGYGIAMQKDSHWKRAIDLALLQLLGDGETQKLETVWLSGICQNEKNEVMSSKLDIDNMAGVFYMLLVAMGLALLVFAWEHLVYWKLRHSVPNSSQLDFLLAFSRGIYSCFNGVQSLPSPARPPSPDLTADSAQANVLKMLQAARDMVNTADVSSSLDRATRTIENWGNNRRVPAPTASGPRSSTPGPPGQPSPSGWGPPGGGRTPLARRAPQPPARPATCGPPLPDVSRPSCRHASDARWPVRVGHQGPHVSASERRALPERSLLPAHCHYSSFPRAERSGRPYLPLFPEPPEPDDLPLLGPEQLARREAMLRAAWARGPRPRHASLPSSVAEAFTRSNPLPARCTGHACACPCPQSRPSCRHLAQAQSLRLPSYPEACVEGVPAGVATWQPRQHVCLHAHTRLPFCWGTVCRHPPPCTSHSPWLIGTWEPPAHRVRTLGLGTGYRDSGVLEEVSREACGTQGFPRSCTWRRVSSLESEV
Sequence of rat GluN1/GluN2C (Rattus norvegicus, UniProt Q00961) (Q00961 20-1237, other chains not shown): as above
Sequence of rat GluN1/GluN2D (Rattus norvegicus, UniProt Q62645) (Q62645 28-1323, other chains not shown): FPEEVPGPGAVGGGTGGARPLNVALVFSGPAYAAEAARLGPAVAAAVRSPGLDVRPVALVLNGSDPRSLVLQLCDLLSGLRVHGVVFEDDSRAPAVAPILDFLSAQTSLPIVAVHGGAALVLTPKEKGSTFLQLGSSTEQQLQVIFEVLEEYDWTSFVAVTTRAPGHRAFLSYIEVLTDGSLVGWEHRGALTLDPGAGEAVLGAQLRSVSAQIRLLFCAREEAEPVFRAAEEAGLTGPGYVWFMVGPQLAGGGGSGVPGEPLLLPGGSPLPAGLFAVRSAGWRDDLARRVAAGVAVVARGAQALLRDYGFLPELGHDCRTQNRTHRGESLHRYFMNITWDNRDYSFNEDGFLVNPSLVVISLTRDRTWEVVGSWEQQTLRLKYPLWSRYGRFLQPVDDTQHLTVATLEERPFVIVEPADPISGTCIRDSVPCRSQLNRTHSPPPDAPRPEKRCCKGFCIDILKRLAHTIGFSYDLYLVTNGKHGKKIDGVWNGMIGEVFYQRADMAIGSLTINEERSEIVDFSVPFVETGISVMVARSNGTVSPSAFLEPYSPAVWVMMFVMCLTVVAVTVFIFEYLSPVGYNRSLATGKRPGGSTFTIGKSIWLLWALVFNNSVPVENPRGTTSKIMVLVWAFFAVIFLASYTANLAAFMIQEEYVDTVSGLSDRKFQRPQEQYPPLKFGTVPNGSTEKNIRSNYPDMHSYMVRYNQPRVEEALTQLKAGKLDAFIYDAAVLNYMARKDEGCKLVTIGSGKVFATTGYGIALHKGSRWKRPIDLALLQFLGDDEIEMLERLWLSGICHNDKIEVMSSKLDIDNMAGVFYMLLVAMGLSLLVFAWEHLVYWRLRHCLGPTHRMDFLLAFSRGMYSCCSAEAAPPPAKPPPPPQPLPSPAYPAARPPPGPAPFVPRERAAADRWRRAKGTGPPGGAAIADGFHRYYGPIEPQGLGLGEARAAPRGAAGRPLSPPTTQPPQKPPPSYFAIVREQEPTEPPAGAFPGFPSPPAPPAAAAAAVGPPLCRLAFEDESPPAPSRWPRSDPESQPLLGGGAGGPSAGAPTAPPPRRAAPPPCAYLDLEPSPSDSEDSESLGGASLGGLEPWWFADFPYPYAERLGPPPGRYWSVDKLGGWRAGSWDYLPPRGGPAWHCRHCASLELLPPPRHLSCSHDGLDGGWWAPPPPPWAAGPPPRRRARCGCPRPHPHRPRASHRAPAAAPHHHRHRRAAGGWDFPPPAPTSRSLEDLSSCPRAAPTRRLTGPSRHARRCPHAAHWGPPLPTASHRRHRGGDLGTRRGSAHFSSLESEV
Sequence of rat GluN1/GluN2D (Rattus norvegicus, UniProt P35439+Q62645) (Q62645 28-1323, other chains not shown): as above

Take `COc1ccc(OCC2c3cccn3CCN2C(=O)c2cccc(C(F)(F)F)c2)cc1` (racemic) [1180-450, (1-((4-methoxyphenoxy)methyl)-3,4-dihydropyrrolo[1,2-a]pyrazin-2(1H)-yl)(3-(trifluoromethyl)phenyl)methanone]: on rat GluN1/GluN2C [1], the “GluN2C (max) (%)” value is recorded as “(381) %”. The EC50 on rat GluN1/GluN2C [2] (read-out: GluN2C pEC50 [95% CI] (converted)) was 1.58 µM; at rat GluN1/GluN2D [5] (read-out: GluN2D pEC50 [95% CI] (converted)), 2 µM. Also, the Solubility (commonly the concentration that dissolves in the medium under given conditions) in data set [3] worked out at 58 µM (≈ 25 µg/mL). On rat GluN1/GluN2D [4], the “GluN2D (max) (%)” value is “(288) %”.

Turning to `COc1ccc(OCC2c3sccc3CCN2C(=O)c2cccc(Cl)c2)cc1` (centres unmarked) [1180-400, (3-Chlorophenyl)(7-((4-methoxyphenoxy)methyl)-4,7-dihydrothieno[2,3-c]pyridin-6(5H)-yl)methanone], the “GluN2C Max %” value on rat GluN1/GluN2C [1] turned out to be 288%. Also, the EC50 was 3.8 µM at rat GluN1/GluN2C [2] (read-out: GluN2C EC50) and 3.5 µM at rat GluN1/GluN2D [5] (read-out: GluN2D EC50). At rat GluN1/GluN2D [4], the “GluN2D Max %” value is given as 391%.

Take `COc1ccc(OCC2c3ccsc3CCN2C(=O)c2cccc(Cl)c2)cc1` (centres unmarked) [1180-401, (3-Chlorophenyl)(4-((4-methoxyphenoxy)methyl)-6,7-dihydrothieno[3,2-c]pyridin-5(4H)-yl)methanone]: the “GluN2C Max %” value on rat GluN1/GluN2C [1] is recorded as 320%. Moreover, the EC50 on rat GluN1/GluN2C [2] (read-out: GluN2C EC50) was determined as 3.6 µM; on rat GluN1/GluN2D [5] (read-out: GluN2D EC50), 4.7 µM. For the same molecule, the “GluN2D Max %” value at rat GluN1/GluN2D [4] amounted to 369%.

Take `COc1ccc(OCC2c3sc(C)nc3CCN2C(=O)c2cccc(Cl)c2)cc1` (centres unmarked) [1180-402, (3-Chlorophenyl)(4-((4-methoxyphenoxy)methyl)-2-methyl-6,7-dihydrothiazolo[5,4-c]pyridin-5(4H)-yl)methanone]: at rat GluN1/GluN2C [1], the “GluN2C potentiation (NE class)” value is listed as “NE (NE indicates less than 20% potentiation at 30 μM)”. The “GluN2D potentiation (NE class)” value on rat GluN1/GluN2D [4] is listed as “NE (NE indicates less than 20% potentiation at 30 μM)”.

On to `COc1ccc(OCC2c3occc3CCN2C(=O)c2cccc(Cl)c2)cc1` (centres unmarked) [1180-403, (3-Chlorophenyl)(7-((4-methoxyphenoxy)methyl)-4,7-dihydrofuro[2,3-c]pyridin-6(5H)-yl)methanone], for which the “GluN2C Max %” value at rat GluN1/GluN2C [1] came to 353%. The EC50 on rat GluN1/GluN2C [2] (read-out: GluN2C EC50) came to 7.4 µM; on rat GluN1/GluN2D [5] (read-out: GluN2D EC50), 9.6 µM. The “GluN2D Max %” value at rat GluN1/GluN2D [4] is given as 527%.

`COc1ccc(OCC2c3sccc3CCN2C(=O)c2ccc(Cl)s2)cc1` (centres unmarked) [1180-404, (5-Chlorothiophen-2-yl)(7-((4-methoxyphenoxy)methyl)-4,7-dihydrothieno[2,3-c]pyridin-6(5H)-yl)methanone]: the “GluN2C Max %” value at rat GluN1/GluN2C [1] is recorded as 269%. For the same molecule, the figures for the EC50 on rat GluN1/GluN2C [2] (read-out: GluN2C EC50) and at rat GluN1/GluN2D [5] (read-out: GluN2D EC50) were 5.1 µM and 7.4 µM, respectively. Further, the “GluN2D Max %” value on rat GluN1/GluN2D [4] was 352%.

Take `COc1ccc(OCC2c3sccc3CCN2C(=O)/C=C/C(F)(F)F)cc1` (centres unmarked) [1180-405, (E)-4,4,4-trifluoro-1-(7-((4-methoxyphenoxy)methyl)-4,7-dihydrothieno[2,3-c]pyridin-6(5H)-yl)but-2-en-1-one]: the “GluN2C Max %” value on rat GluN1/GluN2C [1] amounted to 282%. In addition, the EC50 at rat GluN1/GluN2C [2] (read-out: GluN2C EC50) and at rat GluN1/GluN2D [5] (read-out: GluN2D EC50) was 13 µM throughout. The “GluN2D Max %” value on rat GluN1/GluN2D [4] stood at 317%.

For the molecule `COc1ccc(OCC2c3cnn(C)c3CCN2C(=O)c2cccc(Cl)c2)cc1` (centres unmarked) [1180-407, (3-Chlorophenyl)(4-((4-methoxyphenoxy)methyl)-1-methyl-1,4,6,7-tetrahydro-5H-pyrazolo[4,3-c]pyridin-5-yl)methanone], the “GluN2C response at 100 μM” value at rat GluN1/GluN2C [1] (@ 100 μM) was determined as 207% @ 100 μM. Also, the “GluN2D response at 100 μM” value at rat GluN1/GluN2D [4] (@ 100 μM) was found to be 216% @ 100 μM.

In the case of `COc1ccc(OCC2c3cnsc3CCN2C(=O)c2cccc(Cl)c2)cc1` (centres unmarked) [1180-411, (3-Chlorophenyl)(4-((4-methoxyphenoxy)methyl)-6,7-dihydroisothiazolo[4,5-c]pyridin-5(4H)-yl)methanone], at rat GluN1/GluN2C [1], the “GluN2C Max %” value is given as 194%. In addition, the results for the EC50 at rat GluN1/GluN2C [2] (read-out: GluN2C EC50) and at rat GluN1/GluN2D [5] (read-out: GluN2D EC50) were 11 µM and 15 µM, respectively. In addition, the “GluN2D Max %” value on rat GluN1/GluN2D [4] was 238%.

Regarding `COc1ccc(OCC2c3cnn(C)c3CCN2C(=S)c2cccc(Cl)c2)cc1` (centres unmarked) [1180-413, (3-Chlorophenyl)(4-((4-methoxyphenoxy)methyl)-1-methyl-1,4,6,7-tetrahydro-5H-pyrazolo[4,3-c]pyridin-5-yl)methanethione], the “GluN2C potentiation (NE class)” value at rat GluN1/GluN2C [1] is on record as “NE (NE indicates less than 20% potentiation at 30 μM)”. Further, the “GluN2D potentiation (NE class)” value at rat GluN1/GluN2D [4] is “NE (NE indicates less than 20% potentiation at 30 μM)”.

Consider `COc1ccc(OCC2c3ccsc3CCN2C(=S)c2cccc(Cl)c2)cc1` (centres unmarked) [1180-414, (3-Chlorophenyl)(4-((4-methoxyphenoxy)methyl)-6,7-dihydrothieno[3,2-c]pyridin-5(4H)-yl)methanethione], for which, at rat GluN1/GluN2C [1], the “GluN2C potentiation (NE class)” value was “NE (NE indicates less than 20% potentiation at 30 μM)”. In addition, the “GluN2D potentiation (NE class)” value at rat GluN1/GluN2D [4] was “NE (NE indicates less than 20% potentiation at 30 μM)”.

In the case of `COc1ccc(OCC2c3cccn3CC(=O)N2Cc2cccc(F)c2)cc1` (centres unmarked) [1180-453, 2-(3-fluorobenzyl)-1-((4-methoxyphenoxy)methyl)-1,2-dihydropyrrolo[1,2-a]pyrazin-3(4H)-one], the “GluN2C (max) (%)” value on rat GluN1/GluN2C [1] is on record as “(348) %”. The “Solubility” value in data set [3] came to 74 µM (≈ 28.2 µg/mL). At rat GluN1/GluN2D [4], the “GluN2D (max) (%)” value is listed as “(334) %”.

Take `COc1ccc(OCC2c3cc(OC)c(OC)cc3CCN2C(=O)c2cccc(Cl)c2)cc1` (centres unmarked) [CIQ]: the “GluN2C (max) (%)” value on rat GluN1/GluN2C [1] was found to be 233%. Besides, the EC50 in the data set with GluN2C/D is 5 to 10 µM. In addition, the “activity at GluN2A/B, AMPAR, or kainate receptors” value in data set [6] is reported as “no activity”. Also, the “effect on schizophrenia-like symptoms in animal models” value in data set [7] is “attenuate schizophrenia-like symptoms”. Also, in [8], the “effect on fear and extinction learning in animal models” value is “facilitate the retention of fear and extinction learning”. The “GluN2D (max) (%)” value on rat GluN1/GluN2D [4] is recorded as 215%.

As for `COc1ccc(OC[C@H]2c3cccn3CC(=O)N2Cc2cccc(C(F)(F)F)c2)cc1` [R-(+)-1180-447], the “GluN2C (max) (%)” value at rat GluN1/GluN2C [1] was determined as 276%. Also, on rat GluN1/GluN2D [4], the “GluN2D (max) (%)” value is 332%.

`COc1ccc(OC[C@H]2c3cccn3CCN2C(=O)c2cccc(C(F)(F)F)c2)cc1` [R-(+)-1180-450]: at rat GluN1/GluN2C [1], the “GluN2C (max) (%)” value turned out to be 464%. Further, the “GluN2D (max) (%)” value at rat GluN1/GluN2D [4] is recorded as 542%.

The record behind these values is patent publication US11738008B2, “N-methyl-D-aspartic acid receptor modulators” (Emory University, priority 2018, dated 2023).
